Assay results as given in patent publication US11453660B2, “Androgen receptor and glucocorticoid receptor modulators” (ONCOSTELLAE, S.L., priority 2017, dated 2022).
Numbering of substitutions follows the chain as printed.

Experiments:
AR-Receptor = target: T1, AR-Receptor (Homo sapiens, UniProt P10275); assay: Functional Assay AR-Receptor (MDA-MB-453 cells, luciferase); format: cell-based; details: antagonist effect in the presence of DHT 1 nM, 24 h, luciferase luminescence, read-out: AR antag KB
T1 sequence (P10275 1-920 Q868H): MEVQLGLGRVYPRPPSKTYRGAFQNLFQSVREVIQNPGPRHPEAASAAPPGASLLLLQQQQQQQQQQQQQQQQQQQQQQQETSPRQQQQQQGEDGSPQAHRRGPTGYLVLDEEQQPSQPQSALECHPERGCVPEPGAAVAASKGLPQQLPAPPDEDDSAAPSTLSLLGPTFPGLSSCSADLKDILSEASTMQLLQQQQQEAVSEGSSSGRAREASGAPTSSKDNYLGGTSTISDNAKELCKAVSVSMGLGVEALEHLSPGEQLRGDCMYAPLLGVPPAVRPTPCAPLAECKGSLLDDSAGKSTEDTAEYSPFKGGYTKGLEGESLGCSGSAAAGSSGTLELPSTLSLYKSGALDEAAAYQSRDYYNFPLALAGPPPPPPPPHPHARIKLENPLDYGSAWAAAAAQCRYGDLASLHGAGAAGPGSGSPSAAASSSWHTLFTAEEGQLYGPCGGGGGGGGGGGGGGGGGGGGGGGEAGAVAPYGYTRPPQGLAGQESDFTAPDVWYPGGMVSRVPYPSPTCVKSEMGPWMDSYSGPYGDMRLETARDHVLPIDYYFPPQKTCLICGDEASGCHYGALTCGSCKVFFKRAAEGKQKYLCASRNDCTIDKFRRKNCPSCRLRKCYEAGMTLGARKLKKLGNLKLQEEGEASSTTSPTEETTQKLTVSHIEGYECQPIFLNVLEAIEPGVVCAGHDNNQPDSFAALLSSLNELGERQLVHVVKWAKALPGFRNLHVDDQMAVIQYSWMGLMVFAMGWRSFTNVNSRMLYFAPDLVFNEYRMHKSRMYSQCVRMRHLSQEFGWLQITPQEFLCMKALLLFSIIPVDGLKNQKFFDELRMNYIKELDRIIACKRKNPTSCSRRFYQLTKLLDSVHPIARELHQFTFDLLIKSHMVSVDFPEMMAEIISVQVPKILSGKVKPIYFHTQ
Experimental: Functional Assay AR-Receptor
MDA-MB-453 cells were cultured in DMEM (ATCC, ref 30-2002), 10% FBS, 1% penicillin, 1% streptomycin, 75 μg/ml gentamycin.
The day before performing assay, the cells were trypsinized and seeded in a 384-well plate (Greiner, ref 781098) (8000 cells/well) in 50 μl of complete culture medium. Cells were stores at 37° C. in a 5% CO2 atmosphere overnight.
The medium was replaced by 50 μl complete growth medium with 0.1% FBS. Compounds were dispensed with Echo 550 (Labcyte) and incubated for 24 h at 37° C. in a 5% CO2 atmosphere. Antagonist effect was measured in the presence of DHT 1 nM.
After incubation, assay medium removed and 20 μl of 1× Promega lysis buffer were added to each well. The plate was incubated 15 minutes at RT and quick-frozen to −80° C. and the thaw to room temperature. 50 μl of luciferase substrate (E4550, Promega) were added to each well and luminescence (integration time 1000 msec) was read in an EnSpire multilabel reader (Perkin Elmer).

Rat Androgen Receptor = target: T2, Rat Androgen Receptor (Rattus norvegicus, UniProt P15207); assay: Rat Androgen Receptor Binding (polarscreen AR competitor assay, fluorescence polarization); details: displacement of Fluormone AL Green, 4 hours at RT, read-out: AR rat-fluorimetric
T2 construct: purchased Life Technologies A15880
T2 sequence (P15207 646-902 limits assumed): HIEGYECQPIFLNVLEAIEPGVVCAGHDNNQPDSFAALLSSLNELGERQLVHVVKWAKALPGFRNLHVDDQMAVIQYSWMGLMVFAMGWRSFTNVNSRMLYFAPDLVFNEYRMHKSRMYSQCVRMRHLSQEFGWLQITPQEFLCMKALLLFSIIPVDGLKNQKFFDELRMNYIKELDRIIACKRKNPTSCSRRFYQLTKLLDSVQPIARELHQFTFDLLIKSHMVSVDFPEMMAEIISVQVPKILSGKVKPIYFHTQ
Summary of the method: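 Fluorescence-polarization competition of Fluormone AL Green binding to rat androgen receptor; compounds screened in duplicate at 1 and 10 μM, 4 h at RT, read at λexc 485/λem 535 nm. IC50 from 1:10 dilution series, 10 μM to 0.1 nM, in 1× buffer.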

human androgen receptor = target: T3, human androgen receptor (Homo sapiens, UniProt P10275, T878A); assay: Human Androgen Receptor Binding (radioligand binding, LnCap prostate cancer cell line); details: LnCap cells, displacement of [^3H]-methyltrienolone, 2 hours at 37° C.; read-out: AR LNCaP
T3 construct: endogenously expressed human androgen receptor using the LnCap prostate cancer cell line; endogenous in cells; host or cells: LNCaP prostate cancer cell line (whole cells)
T3 sequence (P10275 1-920 T878A): T1 sequence (P10275 1-920 Q868H) with H868Q, T878A
Summary of the method: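 Whole-cell displacement of [3H]-methyltrienolone from endogenous AR (T878A) in LnCap cells, in RPMI with 0.1% BSA and triamcinolone acetonide. Compounds 10 μM to 0.1 nM in 1:10 steps, 2 h at 37 °C; cells washed, SDS-lysed, bound radioactivity by scintillation counting for IC50.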

[1] = target: T4, Human Glucocorticoid Receptor (Homo sapiens, UniProt P04150); assay: Competition Binding in IM-9 Human Glucocorticoid Receptor (GR IM-9); details: cytosol from IM-9 cell line, 1.5 nM [3H]-Dexamethasone, 4° C. for 6 hours
T4 construct: endogenous in cells; host or cells: cytosol from IM-9 cell line
T4 sequence (P04150 1-777): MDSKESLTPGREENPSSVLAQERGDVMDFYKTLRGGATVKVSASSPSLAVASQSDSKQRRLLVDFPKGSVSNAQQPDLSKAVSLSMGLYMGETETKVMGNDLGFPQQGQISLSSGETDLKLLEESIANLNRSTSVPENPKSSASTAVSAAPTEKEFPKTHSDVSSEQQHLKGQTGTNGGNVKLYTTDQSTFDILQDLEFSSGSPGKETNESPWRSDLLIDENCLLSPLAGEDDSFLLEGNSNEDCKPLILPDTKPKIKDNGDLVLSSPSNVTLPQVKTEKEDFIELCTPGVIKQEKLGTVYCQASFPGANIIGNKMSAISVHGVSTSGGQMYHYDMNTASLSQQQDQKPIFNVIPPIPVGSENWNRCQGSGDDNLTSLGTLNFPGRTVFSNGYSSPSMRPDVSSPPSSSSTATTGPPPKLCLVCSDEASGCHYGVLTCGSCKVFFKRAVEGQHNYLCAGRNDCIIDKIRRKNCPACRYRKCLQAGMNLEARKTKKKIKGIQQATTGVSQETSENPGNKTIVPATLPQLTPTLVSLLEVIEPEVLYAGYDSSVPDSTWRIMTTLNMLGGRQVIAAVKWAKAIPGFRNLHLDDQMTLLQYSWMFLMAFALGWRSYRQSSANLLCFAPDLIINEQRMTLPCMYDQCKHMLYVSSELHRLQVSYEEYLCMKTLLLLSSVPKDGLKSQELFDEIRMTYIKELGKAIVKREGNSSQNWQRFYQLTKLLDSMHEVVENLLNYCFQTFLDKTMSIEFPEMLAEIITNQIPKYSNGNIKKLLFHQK
Summary of the method: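 Radioligand competition using 100 μg IM-9 cell cytosol and 1.5 nM [3H]-dexamethasone, incubated 6 h at 4° C in TES/molybdate buffer, pH 7.4. Filtration on PEI-treated GF/B filters, scintillation counting; nonspecific binding defined with 10 μM triamcinolone.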

| SMILES | Kb (AR-Receptor) [µM] | IC50 (Rat Androgen Receptor) [µM] | IC50 (human androgen receptor) [µM] | IC50 [1] [µM] |
| --- | --- | --- | --- | --- |
| CC(=O)C1=C(C)NC(C)=C(C(=O)Cc2ccccc2)C1c1csc2ccccc12 (stereo not drawn) [Example C52, 1-(5-acetyl-4-(benzo[b]thiophen-3-yl)-2,6-dimethyl-1,4-dihydropyridin-3-yl)-2-phenylethan-1-one] | 0.1 to 1 | 0.1 to 1 | – | – |
| CC(=O)C1=C(C)NC(C)=C(C(=O)OCCc2ccccc2)C1c1csc2ccccc12 (stereo not drawn) [Example C10, Phenethyl 5-acetyl-4-(benzo[b]thiophen-3-yl)-2,6-dimethyl-1,4-dihydropyridine-3-carboxylate] | 0.1 to 1 | ≥ 1 | – | – |
| CC(=O)C1=C(C)NC(C2CC2)=C(C(=O)OCc2ccncc2)C1c1csc2ccccc12 (stereo not drawn) [Example J32, Pyridin-4-ylmethyl 5-acetyl-4-(benzo[b]thiophen-3-yl)-2-cyclopropyl-6-methyl-1,4-dihydropyridine-3-carboxylate] | 0.1 to 1 | – | ≥ 1 | – |
| CC(=O)C1=C(C)NC(C2CC2)=C(C(=O)OCC2CC2)C1c1csc2cc(C#N)ccc12 (stereo not drawn) [Example C122, Cyclopropylmethyl 5-acetyl-4-(6-cyanobenzo[b]thiophen-3-yl)-2-cyclopropyl-6-methyl-1,4-dihydropyridine-3-carboxylate] | < 0.1 | – | – | 0.1 to 1 |
| COC(=O)C1=C(C)NC(N)=C(C(=O)OC)C1c1csc2c(C#N)cccc12 (stereo not drawn) [Example D7, Dimethyl 2-amino-4-(7-cyanobenzo[b]thiophen-3-yl)-6-methyl-1,4-dihydropyridine-3,5-dicarboxylate] | ≥ 1 | – | – | < 0.1 |
| CC(=O)C1=C(C)NC(C)=C(C(=O)OCc2ccncc2)C1c1csc2c(Br)cccc12 (stereo not drawn) [Example J33, Pyridin-4-ylmethyl 5-acetyl-4-(7-bromobenzo[b]thiophen-3-yl)-2,6-dimethyl-1,4-dihydropyridine-3-carboxylate] | 0.1 to 1 | – | 0.1 to 1 | – |
| CC(=O)C1=C(C)NC(C)=C(C(=O)OCc2cccc(N3CCOCC3)c2)C1c1csc2ncccc12 (stereo not drawn) [Example C75, 3-morpholinobenzyl 5-acetyl-2,6-dimethyl-4-(thieno[2,3-b]pyridin-3-yl)-1,4-dihydropyridine-3-carboxylate] | ≥ 1 | – | – | 0.1 to 1 |
| CC(=O)C1=C(C)NC(C2CC2)=C(C(=O)OCc2ccc(C#N)cc2)C1c1csc2ncccc12 (stereo not drawn) [Example J43, 4-cyanobenzyl 5-acetyl-2-cyclopropyl-6-methyl-4-(thieno[2,3-b]pyridin-3-yl)-1,4-dihydropyridine-3-carboxylate] | 0.1 to 1 | – | – | < 0.1 |
| CC(=O)C1=C(C)NC(C)=C(C(=O)OCc2ccccc2-c2ccncc2)C1c1csc2ncccc12 (stereo not drawn) [Example L5, 2-(pyridin-4-yl)benzyl 5-acetyl-2,6-dimethyl-4-(thieno[2,3-b]pyridin-3-yl)-1,4-dihydropyridine-3-carboxylate] | ≥ 1 | – | – | < 0.1 |
| CC(=O)C1=C(C)NC(C)=C(C(=O)OCc2ccc(Cl)nc2)C1c1csc2ncccc12 (stereo not drawn) [Example C74, (6-chloropyridin-3-yl)methyl 5-acetyl-2,6-dimethyl-4-(thieno[2,3-b]pyridin-3-yl)-1,4-dihydropyridine-3-carboxylate] | ≥ 1 | – | – | 0.1 to 1 |
| CC(=O)C1=C(C)NC(C)=C(C(=O)OCc2cccc(CN3CCN(C)CC3)c2)C1c1csc2c(Br)cccc12 (stereo not drawn) [Example C108, 3-((4-methylpiperazin-1-yl)methyl)benzyl 5-acetyl-4-(7-bromobenzo[b]thiophen-3-yl)-2,6-dimethyl-1,4-dihydropyridine-3-carboxylate] | ≥ 1 | – | – | < 0.1 |
| CC(=O)C1=C(C)NC(C)=C(C(=O)N(C)Cc2ccccc2)C1c1csc2ncccc12 (stereo not drawn) [Example C80, 5-Acetyl-N-benzyl-N,2,6-trimethyl-4-(thieno[2,3-b]pyridin-3-yl)-1,4-dihydropyridine-3-carboxamide] | ≥ 1 | – | – | ≥ 1 |
